From PMC4359714 (Naunyn-Schmiedeberg's Archives of Pharmacology, 2015) come the findings set out here.

Each structure is given as a SMILES string. Where two headings read alike, the source gives them in different places.

In data set [1] the test system is cold pressor effect in rats. The data set can be described thus: Cold-induced increase in blood pressure, cold pressor test (CPT). Format: in vivo, rat. As to conditions: 10 mg/kg p.o. Here is the method: 2 h prior to anesthesia with sodium pentobarbital at 60 mg/kg i.p. Blood pressure was recorded for 5 min for “pre-cold baseline” and an additional 5 min during immersion of the paws and ventral half of the body in ice water. Mean blood pressure (MBP) was derived electronically using Digi-Med Blood Pressure Analyzer (Model 400). Plasma was collected through the artery catheter immediately after the cold pressor test for pharmacokinetic analysis. Percent increase from baseline and percent inhibition attributed to treatment with test compound were then determined using the following formula: (1) percent increase from baseline (mmHg) cold pressor effect = [(cold-evoked change in MBP)/MBP pre-cold] × 100; (2) percent inhibition of cold pressor effect = [1 − (cold-evoked change in MBP post-test compound/cold-evoked change in MBP post-vehicle)] × 100.

In another data set the test system is cutaneous C fibers. The data set is described as follows: Skin-nerve preparation, mechanically induced firing in cutaneous C fibers. Particulars: 10 μM; sustained force 5-245 mN; compared to vehicle. The arrangement: species or system mouse. The source says: Adult C57BL/6 mice were obtained from Jackson Laboratories and used for ex vivo skin-nerve preparations. Mice were allowed to acclimate to the animal facility at the Medical College of Wisconsin, an Association for the Assessment and Accreditation of Laboratory Animal […] (AALAC)-accredited facility, for approximately 1 week following shipment. Animals were housed with up to four other cagemates and had ad libitum access to food pellets and hyper-chlorinated water. Mice were housed on a 14:10 h light-dark cycle in cages containing aspen bedding and paper nesting material. Room temperatures averaged 21 °C. Prior to use, animals were briefly anesthetized with inhaled isoflurane and then sacrificed via cervical dislocation.
The mouse saphenous skin-nerve in vitro preparation (Koltzenburg et al. [1997]; Stucky et al. [1999]) was used for electrophysiological recordings of cutaneous terminals of primary afferent fibers in situ. […] Once a unit with a signal to noise ratio >2 was identified, the mechanical threshold was determined using calibrated von Frey filaments (range, 0.44–147.0 mN). […]
Wave forms of action potentials evoked by mechanical stimuli were saved on an oscilloscope for comparison of shape and profile. […] Action potentials were discriminated and counted off-line using a spike histogram software extension. […] All data was also analyzed in a blinded manner.

In a further data set the test system is rats. The data set can be described thus: Open field activity. The format is in vivo, rat. As to conditions: 100 mg/kg, 2 h before; 60 min; not significantly different from vehicle (14,484 ± 1686 cm). The procedure:
Rats were habituated in a reversed light cycle room in home cages for at least 1 week and acclimated to the testing room for 1 h prior to dosing. TRPM8 antagonist (10, 30, or 100 mg/kg) or vehicle (5 % Tween 80 in OraPlus®) was injected 2 h before placing an animal in the open-field apparatus. Open-field activity was measured using a system that counts interruptions of a set of photobeams for the course of 60 min (Kinder Scientific, Poway, CA). To begin a session, animals were removed from the home cage and placed individually into an independent Plexiglas box (41 cm L × 41 cm W × 38 cm H) surrounded by a frame consisting of 32 photocells (16Y and 16X) that track the movement of the animal. Photobeam breaks were used as an indication of activity and were measured as the following parameters per minute: basic movements (beam breaks), distance traveled (cm), time spent (s), and number of repetitive beam breaks (i.e., stereotypic movement). Chlordiazepoxide, which consistently elicits a decrease in open field activity, was used as a positive control. Chlordiazepoxide was formulated in saline at 5.6 mg/kg i.p. and dosed 30 min before the start of the open field assay.

The target in the next data set is T1, rat TRPA1 (Rattus norvegicus, UniProt Q6RI86).
T1 construct: expressed in transfected cells; host or cells: CHO, T-REx tetracycline-inducible system (Invitrogen), co-transfected with aequorin
The data set can be described thus: Luminescence (aequorin) readout of intracellular calcium, CHO cells expressing rat TRPA1, AITC activation. The format is cell-based. The text has this: Stable Chinese hamster ovary (CHO) cell lines expressing rat TRPA1, rat TRPM8, rat TRPV3, and human TRPV4 were generated using the tetracycline-inducible T-REx™ expression system from Invitrogen (Carlsbad, CA) and a stable CHO cell line expressing rat TRPV1 was generated using a constitutive expression system (Klionsky et al. [2007]). To enable a luminescence readout based on intracellular increase in calcium (Le Poul et al. [2002]), each cell line was also co-transfected with pcDNA3.1 plasmid containing jelly fish aequorin cDNA. Twenty-four hours before the assay, cells were seeded in 96-well plates and all TRP channel expression, except for TRPV1, was induced with 0.5 ug/mL tetracycline. […] Luminescence was measured by a CCD camera-based FLASH-luminometer built by Amgen, Inc. The following agonists were used to activate TRP channels: 0.5 uM capsaicin for TRPV1, 80 uM allyl isothiocyanate (AITC) for TRPA1, 1 uM icilin or cold buffer (12 °C) for TRPM8, 200 uM aminoethoxydiphenyl borate (2-APB) for TRPV3, and 1 uM 4α-phorbol 12,13-didecanoate (4α-PDD) for TRPV4. Antagonist IC50 values were calculated using GraphPad Prism 4.01 (GraphPad Software Inc, San Diego, CA).

The nature of data set [2]: Pharmacokinetics in plasma and brain, male Sprague-Dawley rats. The format is in vivo. Particulars: male Sprague-Dawley rat.
Description: Plasma pharmacokinetics of each compound in male Sprague-Dawley rats (n = 3 animals per study) were determined after intravenous dosing at 2 mg/kg in 100 % dimethylsulfoxide (DMSO) or after administration of 5 mg/kg by oral gavage with test article formulated in 5 % Tween 80 in OraPlus®. At designated time points, blood was collected via the femoral artery and processed for plasma by centrifugation. Plasma was then transferred into a 96-well container and stored in a freezer maintained at −70 °C. Similar bioanalytical methods were used to determine plasma and brain exposure in animals tested in pharmacodynamic and pain models. Brain samples were homogenized with a 4:1 ratio of water (mL) for every gram of brain tissue. […] Calibration standards were prepared from a 1 mg/mL stock solution of each compound in DMSO with a serial dilution into a blank matrix (plasma or brain homogenate). Liquid chromatography with tandem mass spectrometry was used for the quantitation of each compound in rat plasma and brain. Non-compartmental pharmacokinetic analysis of plasma concentrations was conducted using WinNonlin Enterprise v.5.1.1 (Pharsight Corporation, Mountain View, CA). Brain uptake was calculated as a ratio of concentration in whole brain tissue to that in plasma taken from the same animal at approximately the same time.

T1 sequence (Q6RI86 whole entry): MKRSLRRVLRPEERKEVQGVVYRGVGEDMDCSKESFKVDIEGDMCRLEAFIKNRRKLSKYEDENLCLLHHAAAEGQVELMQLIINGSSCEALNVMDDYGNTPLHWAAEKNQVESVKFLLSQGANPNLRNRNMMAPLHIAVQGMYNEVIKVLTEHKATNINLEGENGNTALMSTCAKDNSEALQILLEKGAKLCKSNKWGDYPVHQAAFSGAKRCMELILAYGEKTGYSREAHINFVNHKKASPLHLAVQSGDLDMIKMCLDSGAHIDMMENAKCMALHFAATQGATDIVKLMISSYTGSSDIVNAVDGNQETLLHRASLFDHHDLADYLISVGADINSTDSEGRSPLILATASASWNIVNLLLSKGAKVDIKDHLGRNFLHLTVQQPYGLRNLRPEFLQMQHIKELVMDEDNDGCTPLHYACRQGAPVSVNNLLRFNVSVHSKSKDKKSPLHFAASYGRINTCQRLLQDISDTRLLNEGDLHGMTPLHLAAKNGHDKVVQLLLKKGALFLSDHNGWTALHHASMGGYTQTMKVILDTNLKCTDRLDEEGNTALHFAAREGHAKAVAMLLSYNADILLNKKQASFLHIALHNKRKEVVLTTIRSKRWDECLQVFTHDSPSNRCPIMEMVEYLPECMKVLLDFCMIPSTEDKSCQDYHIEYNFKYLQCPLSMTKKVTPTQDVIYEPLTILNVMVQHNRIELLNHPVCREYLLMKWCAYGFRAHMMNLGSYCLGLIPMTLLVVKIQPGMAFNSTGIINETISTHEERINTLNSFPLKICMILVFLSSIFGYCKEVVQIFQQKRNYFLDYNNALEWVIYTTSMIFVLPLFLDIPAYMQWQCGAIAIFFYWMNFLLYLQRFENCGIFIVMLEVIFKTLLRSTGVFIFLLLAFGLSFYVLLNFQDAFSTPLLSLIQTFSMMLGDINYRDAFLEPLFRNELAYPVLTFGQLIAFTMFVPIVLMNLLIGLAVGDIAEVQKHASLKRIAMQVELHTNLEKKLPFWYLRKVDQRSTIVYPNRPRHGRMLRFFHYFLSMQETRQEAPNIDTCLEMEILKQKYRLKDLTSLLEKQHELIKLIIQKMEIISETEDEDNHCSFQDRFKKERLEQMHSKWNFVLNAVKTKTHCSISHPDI

As for `C[C@H](NC(=O)N1CCc2cccnc2[C@H]1c1ccc(C(F)(F)F)cc1)C(F)(F)F` [AMG2850, (R)-8-(4-(trifluoromethyl)phenyl)-N-((S)-1,1,1-trifluoropropan-2-yl)-5,6-dihydro-1,7-naphthyridine-7(8H)-carboxamide], the “effect on cold pressor response” value in data set [1] is recorded as “fully blocked”. In addition, the “effect on mechanical firing in C fibers” value in the data set with cutaneous C fibers is recorded as “no significant effect”. In addition, the “total distance traveled, open field” value in the data set with rats is listed as 13,640 ± 623 cm. Besides, the IC50 at rat TRPA1 (80 uM AITC, read-out: rTRPA1 IC50) was over 25 µM; at rat TRPA1 (agonism, read-out: rTRPA1 agonism IC50) it was over 25 µM. In data set [2] (5 mg/kg oral gavage), this molecule displayed an Oral bioavailability of 47%. Besides, the clearance in data set [2] (plasma, iv, i.v. 2 mg/kg) was 7.83 mL/min/kg. Moreover, the bioavailability in data set [2] (plasma, 5 mg/kg oral gavage) was over 40%.
